In brackets after ≈: the same amount, converted by molar mass. Structures can show the parent of a compound that is named as a salt.
Experiments:
[1] = Eye drop formulation properties (osmolarity, viscosity, dissolved dexamethasone); format: physicochemical; conditions: aqueous eye drop suspension with γ-cyclodextrin, aqueous with cosolvent or surfactant or cyclodextrin, thermodynamic from solid; eye drop formulation of EXPERIMENT 4
[2] = physchem; conditions: aqueous cyclodextrin solution, 22.5 °C, aqueous with cosolvent or surfactant or cyclodextrin, thermodynamic from solid
[3] = Phase-solubility study of dexamethasone with RMβCD or γCD; format: physicochemical; conditions: for Phase-solubility diagram type: room temperature
Experimental: Phase-solubility study was performed to determine the exact amount of RMβCD needed to solubilize dexamethasone in the eye drop medium. An excess amount of dexamethasone was added to aqueous solution containing from 0 to 25% (w/v) RMβCD, benzalkonium chloride (0.02% w/v), EDTA (0.1% w/v), NaCl (0.00 to 0.72% w/v) and HPMC (0.1%). […] The suspensions were allowed to cool to room temperature (22-23° C.) and equilibrate for 7 days. After equilibrium was attained, the suspension was filtered through a 0.45 μm membrane filter, diluted and analyzed by HPLC. […] The phase-solubility was determined to be of AL-type and thus dexamethasone appears to form 1:1 dexamethasone/RMβCD complex in the aqueous eye drop formulation.
Phase-solubility study was performed to determine the exact amount of γCD needed to solubilize dexamethasone. An excess amount of dexamethasone was added to aqueous solution or suspension containing from 0 to 10% (w/v) γCD. […] The suspensions were allowed to cool to room temperature (22-23° C.) and equilibrate for 7 days. After equilibrium was attained, the suspension was filtered through a 0.45 μm membrane filter, and the filtrate diluted and analyzed by HPLC.

[4] = tested on: rabbit eye; assay: Ocular irritation in rabbits following powder administration; format: in vivo; conditions: for Bulbar redness (points) / Discharge (points): drug eye, pure powder, median (range), 0-3 points
Experimental: Timolol maleate powder was administered to one eye of each rabbit and the other eye was used as control. Both pure timolol maleate powder and freeze-dried with PVP-polymer (2.4% of mass) were tested in 1.0 mg (n=3) and 0.1 mg (n=6) doses. Additionally, four rabbits received 0.1 mg of the pure powder 3 times a day for 8 days. Redness of bulbar conjunctivae and the amount of discharge were rated from photographs (0-3 points, randomized and masked evaluation). Slitlamp examination was also performed. Hematoxylin-eosin (H&E) stained sections of eyes were examined with a light microscope following the 8 days experiment.

[5] = Solubility of drugs in pure aqueous cyclodextrin solutions at room temperature (Experiment 6); conditions: 22-23° C.

solubility at 7 days [1] [µg/mL] | solubility [2] [µg/mL] | Phase-solubility diagram type ([3]; aqueous RMβCD (0-25% w/v) eye drop solutions) | solubility at 7 days ([3]; aqueous γ-cyclodextrin solution/suspension, 22.5 °C, aqueous with cosolvent or surfactant or cyclodextrin, thermodynamic from solid, pure water containing γ-cyclodextrin, at 5% (w/v) γCD concentration, read-out: Maximum dexamethasone solubility) [µg/mL] | Phase-solubility diagram type ([3]; γCD 0 to 10% (w/v) in pure water) | Drug solubility in aqueous randomly methylated β-cyclodextrin ([5]; Randomly methylated β-cyclodextrin 5% w/v) [mg/mL] | Drug solubility in aqueous γ-cyclodextrin ([5]; γ-cyclodextrin 5% w/v) [mg/mL] | Structure (SMILES) | Ocular irritation ([4]; 0.1 mg) | Slitlamp examination, surface photographs and histology, drug versus control eyes ([4]; 0.1 mg 3 times a day for 8 days) | Signs of irritation ([4]; 1.0 mg and 0.1 mg doses) | Bulbar redness (points) ([4]; 0.1 mg × 24 (8 days, n = 4)) | Discharge (points) ([4]; 0.1 mg × 24 (8 days, n = 4)) | Bulbar redness (points) ([4]; 1 hr. after 0.1 mg (n = 6)) | Discharge (points) ([4]; 1 hr. after 0.1 mg (n = 6)) | Bulbar redness (points) ([4]; 1 hr. after 1.0 mg (n = 3)) | Discharge (points) ([4]; 1 hr. after 1.0 mg (n = 3)) | Bulbar redness (points) ([4]; 24 hr. after 0.1 mg (n = 6)) | Discharge (points) ([4]; 24 hr. after 0.1 mg (n = 6)) | Bulbar redness (points) ([4]; 24 hr. after 1.0 mg (n = 3)) | Discharge (points) ([4]; 24 hr. after 1.0 mg (n = 3))
700 to 900 (≈ 1.78 to 2.29 mM) | 3000 (≈ 7.64 mM) | AL-type | 5300 (≈ 13.5 mM) | BS-type | – | – | C[C@@H]1C[C@H]2[C@@H]3CCC4=CC(=O)C=C[C@]4(C)[C@@]3(F)[C@@H](O)C[C@]2(C)[C@@]1(O)C(=O)CO [Dexamethasone] | – | – | – | – | – | – | – | – | – | – | – | – | –
– | – | – | – | – | – | – | CC(C)(C)NC[C@H](O)COc1nsnc1N1CCOCC1 [Timolol maleate powder, Timolol maleate] | negligible ocular irritation | negligible difference between drug and control eyes | No serious or irreversible signs of irritation | 0.8 (0.0-1.5) points | 0.0 (0.0-0.5) points | 1.5 (1.0-2.0) points | 0.0 (0.0-1.5) points | 1.0 (1.0-1.5) points | 1.0 (0.0-2.0) points | 1.0 (0.0-2.0) points | 0.0 (0.0-0.0) points | 1.0 (1.0-1.0) points | 0.3 (0.0-0.8) points
– | 1100 (≈ 2.53 mM) | – | – | – | 2.0 | 4.4 | CC1(C)O[C@@H]2C[C@H]3[C@@H]4CCC5=CC(=O)C=C[C@]5(C)[C@@]4(F)[C@@H](O)C[C@]3(C)[C@]2(C(=O)CO)O1 [Triamcinolone acetonide] | – | – | – | – | – | – | – | – | – | – | – | – | –

Reference: patent US8999953B2, “Cyclodextrin nanotechnology for ophthalmic drug delivery” (Oculis EHF, priority 2005, dated 2015)
